# Measured values from US20130072534A1 (LABORATORIOS DEL DR. ESTEVE, S.A., priority 2009, published 2013).
# System: formalin-induced nociceptive behaviour
# Assay: Formalin test in mice (phase II licking/biting of the injected paw)
# Type: in vivo, Male CD-1 mice
# Conditions: i.p.; for efficacy of analgesic effect (in words): formalin test
# Procedure: To assess the reliability of the efficacy and potency of the compounds and combinations tested, the nociceptive response was assessed by the formalin test. The behaviour analysed was the total time spent in licking and biting of the injected paw measured during the 15-30 min period (phase II) (Dubuisson D., et al. Pain 1977, 4, 161 and Rosland et al., Pain 1990, 42, 235).
# All drugs prepared at various concentrations were dissolved in 0.5% hydroxypropyl methylcellulose in distilled water and coadministered in a volume of 10 ml/kg per mice through the intraperitoneal (i.p.) route. Control animals received the same volume of vehicle.
# Male CD-1 mice weighing between 20 and 25 g (Charles River Laboratories) are used for all the experiments. The animals were housed in a temperature-controlled room (21±1° C.) with air exchange every 20 min and an automatic 12-h light/dark cycle (light from 08.00 to 20.00 h). They were fed a standard laboratory diet and tap water ad libitum until the beginning of the experiments. The experiments were performed during the light phase (09.00-15.00 h). Naive animals were used throughout.
# A concentrated formalin solution was diluted with saline to the appropriate concentration (2.5%). Formalin test was performed as described in Rosland et al., Pain 1990, 42, 235, with slight modifications. 20 microliters of the formalin solution was injected subcutaneously (s.c.) into the dorsal surface of the right hind paw of the mouse, using a Hamilton microsyringe with a 301/2-gauge needle. The nociceptive behaviour (licking and/or biting) was recorded from 15 to 35 min after formalin injection as an indicator of the pain response.
# The method is based on the comparison of the effect of several doses of a combination at a determined ratio with respect to the effects achieved using different doses of each of the two agents. […] The theoretical additive dose (Zadd) for a combination was then calculated and compared with the experimental ED50 of the combination (Zt) as described in Tallarida, Drug synergism 2001, 298, 865-872. […]
compound,measurement,setting,value
"COc1ccc(C(CN(C)C)C2(O)CCCCC2)cc1 (racemic) [Venlafaxine, (rac)-1-[2-dimethylamino-1-(4-methoxyphenyl)-ethyl]cyclohexanol]",efficacy of analgesic effect (in words),,full efficacy
"Cc1ccc(-c2cc(C(F)(F)F)nn2-c2ccc(S(N)(=O)=O)cc2)cc1 [celecoxib, 4-[5-(4-methylphenyl)-3-(trifluoromethyl)pyrazol-1-yl]benzenesulfonamide]",maximum efficacy (analgesic effect),formalin test (2.5% formalin s.c. into hind paw),45.78%
same,efficacy of analgesic effect (in words),,ceiling effect
